Data from US20250376469A1, “INDOLIZINE DERIVATIVES FOR TREATING TRPM3-MEDIATED DISORDERS” (Katholieke Universiteit Leuven, priority 2022, published 2025).
Each block holds one molecule with its values, some of them ahead of it.

Molecular target: T1, mouse TRPM3α2 (mTRPM3) ion channel (Mus musculus, UniProt J9SQF3)
T1 construct: expressed in transfected cells; host or cells: flip-in HEK293
Experiment: TRPM3 ion channel driven Ca2+ uptake (Fluo-4 AM assay, pregnenolone sulfate stimulated)
Format: cell-based
Conditions: TRPM3 overexpressing flip-in HEK293 cells, channel opened with pregnenolone sulfate (PS) 50 μM, 2.4 mM Ca2+
Description: In order to monitor the inhibition of the mouse TRPM3α2 (mTRPM3) ion channel by the compounds of the invention, a cellular system making use of an mTRPM3alpha2 or hTRPM3 overexpressing cell line (flip-in HEK293) was used. The TRPM3 channel was stimulated/opened with Pregnenolone sulfate (PS) (50 μM) which results in Ca^2+ influx.
For mTRPM3, the intracellular Ca^2+ was measured with a Calcium responsive dye, Fluor-4 AM ester (Invitrogen). Cells were cultured until a confluence of 80-90%, washed with Versene (Invitrogen) and detached from the surface by a short incubation with 0.05% Trypsin (Invitrogen). The trypsination process was stopped by the addition of complete cell culture medium (DMEM, glutamax, 10% FCS, NEAA, Pen-Strep). Cells were collected and resuspended in Krebs buffer without Calcium at RT.
Prior the cell seeding (±2000 cells/well into a black, 384 well plate (Greiner)) the diluted compound was added in the assay plate, together with the PS dissolved in Krebs buffer containing Calcium. […] Directly after cell addition the plates were read on an Envision fluorescence reader (Perkin Elmer) by an Excitation of 485 nm and emission at 535 nm.
Channel inhibition was calculated compared to a non-PS stimulated control versus a condition stimulated with PS (50 μM) with vehicle. The ability of a the compounds of the invention to inhibit this activity was determined as: Percentage inhibition=[1−((RFU determined for sample with test compound present−RFU determined for sample with positive control inhibitor) divided by (RFU determined in the presence of vehicle−RFU determined for sample with positive control inhibitor))]*100.
The activities of the Example compounds […] tested are depicted in the table below. The activity ranges A, B and C refer to IC50 values in the Fluo-4 AM assay as follows: […]

T1 sequence (J9SQF3 1-1709 isoform J9SQF3-12): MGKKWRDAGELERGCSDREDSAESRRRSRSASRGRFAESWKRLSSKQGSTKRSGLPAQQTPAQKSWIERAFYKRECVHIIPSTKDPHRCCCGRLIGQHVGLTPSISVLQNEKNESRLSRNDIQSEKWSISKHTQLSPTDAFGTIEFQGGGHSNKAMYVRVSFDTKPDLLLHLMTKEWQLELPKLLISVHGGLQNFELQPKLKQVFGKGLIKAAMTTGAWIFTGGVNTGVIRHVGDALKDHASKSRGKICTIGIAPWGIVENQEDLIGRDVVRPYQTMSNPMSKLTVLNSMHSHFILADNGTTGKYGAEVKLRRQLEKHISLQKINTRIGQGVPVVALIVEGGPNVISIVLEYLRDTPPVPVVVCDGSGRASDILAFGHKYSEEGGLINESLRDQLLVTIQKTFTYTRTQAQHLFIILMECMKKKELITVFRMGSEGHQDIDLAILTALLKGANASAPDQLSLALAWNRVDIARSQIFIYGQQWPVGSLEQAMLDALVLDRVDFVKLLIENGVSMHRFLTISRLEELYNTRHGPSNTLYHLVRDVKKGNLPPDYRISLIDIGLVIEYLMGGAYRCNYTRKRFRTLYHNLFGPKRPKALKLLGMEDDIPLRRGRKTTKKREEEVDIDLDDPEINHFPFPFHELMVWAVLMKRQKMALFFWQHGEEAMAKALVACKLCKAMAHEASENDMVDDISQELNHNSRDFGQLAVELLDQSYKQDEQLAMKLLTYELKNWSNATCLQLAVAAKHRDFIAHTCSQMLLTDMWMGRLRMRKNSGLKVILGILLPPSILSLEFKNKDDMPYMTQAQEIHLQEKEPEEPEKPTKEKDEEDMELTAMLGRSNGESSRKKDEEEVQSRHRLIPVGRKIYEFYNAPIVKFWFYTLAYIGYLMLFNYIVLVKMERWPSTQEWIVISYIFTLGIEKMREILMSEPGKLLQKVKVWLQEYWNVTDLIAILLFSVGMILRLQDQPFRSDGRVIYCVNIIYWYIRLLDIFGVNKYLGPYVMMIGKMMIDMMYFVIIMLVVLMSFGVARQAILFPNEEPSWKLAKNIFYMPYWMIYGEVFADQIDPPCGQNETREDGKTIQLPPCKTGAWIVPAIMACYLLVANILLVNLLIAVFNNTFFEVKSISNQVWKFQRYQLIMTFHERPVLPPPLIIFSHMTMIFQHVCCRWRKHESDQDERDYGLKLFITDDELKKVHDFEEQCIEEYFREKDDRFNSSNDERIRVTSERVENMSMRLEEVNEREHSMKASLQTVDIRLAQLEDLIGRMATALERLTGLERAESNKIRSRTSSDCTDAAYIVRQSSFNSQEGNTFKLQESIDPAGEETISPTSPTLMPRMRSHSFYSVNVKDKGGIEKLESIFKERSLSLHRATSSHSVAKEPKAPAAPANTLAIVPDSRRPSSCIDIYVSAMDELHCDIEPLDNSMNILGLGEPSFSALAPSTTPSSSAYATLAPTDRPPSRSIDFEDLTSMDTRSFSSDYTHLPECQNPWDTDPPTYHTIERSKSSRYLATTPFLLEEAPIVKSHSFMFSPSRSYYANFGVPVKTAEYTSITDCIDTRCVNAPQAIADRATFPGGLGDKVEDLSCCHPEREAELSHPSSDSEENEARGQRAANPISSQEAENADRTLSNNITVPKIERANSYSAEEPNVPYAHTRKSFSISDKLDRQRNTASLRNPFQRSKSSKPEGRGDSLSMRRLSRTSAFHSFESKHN

SMILES: Cc1cc2ccc(OCc3ccccn3)cn2c1C(=O)NC1CNCCC1(F)F (single isomer, unassigned) [Cpd 017 - En2, N-(4,4-difluoropiperidin-3-yl)-2-methyl-6-[(pyridin-2-yl)methoxy]indolizine-3-carboxamide]
IC50: > 20000 nM

SMILES: Cc1cc2ccc(OCC3CC3)cn2c1C(=O)NC(C)(CO)C(N)=O (single isomer, unassigned) [Cpd 019 - En2]
IC50: 1000 to 20000 nM

SMILES: Cc1cc2ccc(OCC3CC3)cn2c1C(=O)NC1(CO)CCNC1=O (single isomer, unassigned) [Cpd 021 - En2]
IC50: 1000 to 20000 nM

SMILES: CC(=O)C(C)NC(=O)c1c(C)cc2ccc(OCC3CC3)cn12 (single isomer, unassigned) [Cpd 023 - En1]
IC50: 1000 to 20000 nM

SMILES: CC(=O)C(C)NC(=O)c1c(C)cc2ccc(OCC3CC3)cn12 (single isomer, unassigned) [Cpd 023 - En2]
IC50: 1000 to 20000 nM

SMILES: Cc1cc2ccc(OCC(F)F)cn2c1C(=O)NC1CNCCC1(F)F (single isomer, unassigned) [Cpd 027 - En1]
IC50: 1000 to 20000 nM

SMILES: Cc1cc2ccc(OCC(F)F)cn2c1C(=O)NC1CNCCC1(F)F (single isomer, unassigned) [Cpd 027 - En2]
IC50: > 20000 nM

SMILES: CC(=O)C(C)NC(=O)c1c(C)cc2ccc(OCC(F)F)cn12 (single isomer, unassigned) [Cpd 028 - En1]
IC50: > 20000 nM

SMILES: CC(=O)C(C)NC(=O)c1c(C)cc2ccc(OCC(F)F)cn12 (single isomer, unassigned) [Cpd 028 - En2]
IC50: > 20000 nM

SMILES: Cc1ncc(COc2ccc3cc(C)c(C(=O)NC(C)(CO)C(N)=O)n3c2)s1 (single isomer, unassigned) [Cpd 029 - En2, 3-hydroxy-2-methyl-2-({2-methyl-6-[(2-methyl-1,3-thiazol-5-yl)methoxy]indolizin-3-yl}formamido)propanamide]
IC50: 1000 to 20000 nM

SMILES: COCC(C)(CO)NC(=O)c1c(C)cc2ccc(OCc3ccccn3)cn12 (single isomer, unassigned) [Cpd 032 - En1]
IC50: 1000 to 20000 nM

SMILES: Cc1cc2ccc(OCc3ccccn3)cn2c1C(=O)NC(CO)C(N)=O (single isomer, unassigned) [Cpd 033 - En1]
IC50: 1000 to 20000 nM

SMILES: Cc1cc2ccc(OCc3ccccc3)cn2c1C(=O)NC(C)(CO)CC(F)F (single isomer, unassigned) [Cpd 035 - En2]
IC50: 1000 to 20000 nM

SMILES: Cc1cc2ccc(OCc3ccccn3)cn2c1C(=O)NC(C)(CO)CC(F)F (single isomer, unassigned) [Cpd 036 - En2]
IC50: 1000 to 20000 nM

SMILES: Cc1cc2ccc(OCc3cccnc3)cn2c1C(=O)NC1(CO)CCNC1=O (single isomer, unassigned) [Cpd 037 - En2]
IC50: 1000 to 20000 nM

SMILES: COc1ncccc1COc1ccc2cc(C)c(C(=O)NC3(CO)CCNC3=O)n2c1 (single isomer, unassigned) [Cpd 038 - En2]
IC50: 1000 to 20000 nM

SMILES: Cc1cc2ccc(OCc3cccnc3C(F)(F)F)cn2c1C(=O)NC1(CO)CCNC1=O (single isomer, unassigned) [Cpd 039 - En2]
IC50: 1000 to 20000 nM

SMILES: Cc1cc2ccc(OCc3c(F)cnn3C)cn2c1C(=O)NC1(CO)CCNC1=O (single isomer, unassigned) [Cpd 040 - En2]
IC50: 1000 to 20000 nM

SMILES: Cc1cc2ccc(OCc3cnccn3)cn2c1C(=O)NC(CO)CC(F)(F)F (single isomer, unassigned) [Cpd 041 - En1]
IC50: 1000 to 20000 nM

SMILES: Cc1cc2ccc(OCc3cnccn3)cn2c1C(=O)NC(CO)CC(F)(F)F (single isomer, unassigned) [Cpd 041 - En2]
IC50: > 20000 nM

SMILES: Cc1cc2ccc(OCc3cccnc3)cn2c1C(=O)NC(CO)CC(F)(F)F (single isomer, unassigned) [Cpd 042 - En2]
IC50: 1000 to 20000 nM

SMILES: COc1ncccc1COc1ccc2cc(C)c(C(=O)NC(CO)CC(F)(F)F)n2c1 (single isomer, unassigned) [Cpd 043 - En2]
IC50: > 20000 nM

SMILES: Cc1cc2ccc(OCc3cccnc3C(F)(F)F)cn2c1C(=O)NC(CO)CC(F)(F)F (single isomer, unassigned) [Cpd 044 - En1]
IC50: > 20000 nM

Second part, the molecule after the results:

IC50: < 1000 nM
SMILES: Cc1cc2ccc(OCc3ccccc3F)cn2c1C(=O)NC(C)(CO)C(N)=O (single isomer, unassigned) [Cpd 005 - En1, 2-({6-[(2-fluorophenyl)methoxy]-2-methylindolizin-3-yl}formamido)-3-hydroxy-2-methylpropanamide]

IC50: < 1000 nM
SMILES: Cc1cc2ccc(OCc3ccccc3F)cn2c1C(=O)NC(C)(CO)C(N)=O (single isomer, unassigned) [Cpd 005 - En2, 2-({6-[(2-fluorophenyl)methoxy]-2-methylindolizin-3-yl}formamido)-3-hydroxy-2-methylpropanamide]

IC50: < 1000 nM
SMILES: Cc1cc2ccc(OCc3ccccc3F)cn2c1C(=O)NC1(CO)CCNC1=O (single isomer, unassigned) [Cpd 007 - En1]

IC50: 1000 to 20000 nM
SMILES: Cc1cc2ccc(OCc3ccccc3F)cn2c1C(=O)NC1(CO)CCNC1=O (single isomer, unassigned) [Cpd 007 - En2]

IC50: < 1000 nM
SMILES: Cc1cc2ccc(OCc3ccccn3)cn2c1C(=O)NC(C)(CO)C(N)=O (single isomer, unassigned) [Cpd 014 - En1]

IC50: 1000 to 20000 nM
SMILES: Cc1cc2ccc(OCc3ccccn3)cn2c1C(=O)NC(C)(CO)C(N)=O (single isomer, unassigned) [Cpd 014 - En2]

IC50: < 1000 nM
SMILES: Cc1cc2ccc(OCc3ccccn3)cn2c1C(=O)NC1(CO)CCNC1=O (single isomer, unassigned) [Cpd 016 - En1]

IC50: 1000 to 20000 nM
SMILES: Cc1cc2ccc(OCc3ccccn3)cn2c1C(=O)NC1(CO)CCNC1=O (single isomer, unassigned) [Cpd 016 - En2]

IC50: 1000 to 20000 nM
SMILES: Cc1cc2ccc(OCc3ccccn3)cn2c1C(=O)NC1CNCCC1(F)F (single isomer, unassigned) [Cpd 017 - En1, N-(4,4-difluoropiperidin-3-yl)-2-methyl-6-[(pyridin-2-yl)methoxy]indolizine-3-carboxamide]

IC50: 1000 to 20000 nM
SMILES: Cc1cc2ccc(OCc3ccccn3)cn2c1C(=O)NC(C)C(N)=O (single isomer, unassigned) [Cpd 018 - En1]

IC50: 1000 to 20000 nM
SMILES: Cc1cc2ccc(OCc3ccccn3)cn2c1C(=O)NC(C)C(N)=O (single isomer, unassigned) [Cpd 018 - En2]

IC50: < 1000 nM
SMILES: Cc1cc2ccc(OCC3CC3)cn2c1C(=O)NC(C)(CO)C(N)=O (single isomer, unassigned) [Cpd 019 - En1]

IC50: < 1000 nM
SMILES: Cc1cc2ccc(OCC3CC3)cn2c1C(=O)NC1(CO)CCNC1=O (single isomer, unassigned) [Cpd 021 - En1]

IC50: < 1000 nM
SMILES: Cc1ncc(COc2ccc3cc(C)c(C(=O)NC(C)(CO)C(N)=O)n3c2)s1 (single isomer, unassigned) [Cpd 029 - En1, 3-hydroxy-2-methyl-2-({2-methyl-6-[(2-methyl-1,3-thiazol-5-yl)methoxy]indolizin-3-yl}formamido)propanamide]

IC50: < 1000 nM
SMILES: COCC(C)(CO)NC(=O)c1c(C)cc2ccc(OCc3ccccn3)cn12 (single isomer, unassigned) [Cpd 032 - En2]

IC50: < 1000 nM
SMILES: Cc1cc2ccc(OCc3ccccn3)cn2c1C(=O)NC(CO)C(N)=O (single isomer, unassigned) [Cpd 033 - En2]

IC50: < 1000 nM
SMILES: Cc1cc2ccc(OCc3ccccc3)cn2c1C(=O)NC(CO)C(N)=O (single isomer, unassigned) [Cpd 034 - En1]

IC50: < 1000 nM
SMILES: Cc1cc2ccc(OCc3ccccc3)cn2c1C(=O)NC(CO)C(N)=O (single isomer, unassigned) [Cpd 034 - En2]

IC50: < 1000 nM
SMILES: Cc1cc2ccc(OCc3ccccc3)cn2c1C(=O)NC(C)(CO)CC(F)F (single isomer, unassigned) [Cpd 035 - En1]

IC50: < 1000 nM
SMILES: Cc1cc2ccc(OCc3ccccn3)cn2c1C(=O)NC(C)(CO)CC(F)F (single isomer, unassigned) [Cpd 036 - En1]

IC50: < 1000 nM
SMILES: Cc1cc2ccc(OCc3cccnc3)cn2c1C(=O)NC1(CO)CCNC1=O (single isomer, unassigned) [Cpd 037 - En1]

IC50: < 1000 nM
SMILES: COc1ncccc1COc1ccc2cc(C)c(C(=O)NC3(CO)CCNC3=O)n2c1 (single isomer, unassigned) [Cpd 038 - En1]

IC50: < 1000 nM
SMILES: Cc1cc2ccc(OCc3cccnc3C(F)(F)F)cn2c1C(=O)NC1(CO)CCNC1=O (single isomer, unassigned) [Cpd 039 - En1]

IC50: < 1000 nM
SMILES: Cc1cc2ccc(OCc3c(F)cnn3C)cn2c1C(=O)NC1(CO)CCNC1=O (single isomer, unassigned) [Cpd 040 - En1]

IC50: < 1000 nM
SMILES: Cc1cc2ccc(OCc3cccnc3)cn2c1C(=O)NC(CO)CC(F)(F)F (single isomer, unassigned) [Cpd 042 - En1]

IC50: < 1000 nM
SMILES: COc1ncccc1COc1ccc2cc(C)c(C(=O)NC(CO)CC(F)(F)F)n2c1 (single isomer, unassigned) [Cpd 043 - En1]

IC50: < 1000 nM
SMILES: Cc1cc2ccc(OCc3cccnc3C(F)(F)F)cn2c1C(=O)NC(CO)CC(F)(F)F (single isomer, unassigned) [Cpd 044 - En2]
